Test [1] addresses T1, IL-17A(FLAG-Tagged): IL-17RA(His-Tagged) (Homo sapiens, UniProt Q16552, K93Q). As to the kind of experiment: IL-17A(FLAG-Tagged): IL-17RA(His-Tagged) Binding Disruption Eu-HTRF Assay, Protocol 2. Particulars: Protocol 2, FLAG tagged IL-17A 1 nM; simple average if tested more than once. The text has this:
An antibody directed against the FLAG tag of IL-17A (SEQ ID NO: 1) is labeled with the HTRF donor chromophore (Europium-cryptate). IL-17A is present as a dimer that is “locked into” this quaternary structure due to the formation of loop-spanning […] disulfide bridges. The construct of IL-17RA used in the assay excludes the […] portion of the receptor and is fused to a C-terminal 10×His tag (SEQ ID NO:2). An antibody directed against the His tag of the IL-17RA chimera is labeled with the HTRF acceptor chromophore (“D2”). The fluorescence-resonance energy transfer (FRET) depends on the vicinity of the donor chromophore to the acceptor, and interruption of the binding between the IL-17A and IL-17RA causes the reduction/loss of FRET. Therefore, this assay allows to evaluate the compound effect on the binding IL-17A and IL-17RA by monitoring the fluorescence intensity of donor vs acceptor. The assay was run using either Protocol 1 or Protocol 2 as described below.
Protocol 2. 40 nl of 2-fold serial diluted compound solution for total 22 dilution points is added into each well of a 1536-well, white, low-volume, non-binding plate (Greiner #782904), then 2 μl of FLAG tagged IL-17A at 2× final concentration (1 nM) in solution of PBS+0.01% Triton-X100 is added to each well. The assay plate is briefly centrifuged then incubated for 1 h at rt. A mixed solution is prepared containing 2×5 nM 10HIS×IL-17RA, 2×2.5 nM Eu-anti-FLAG (CISBIO), 2×5 nM D2-anti-HIS (CISBIO) in PBS+0.01% Triton-X100+200 mM Potassium Fluoride (Sigma 60238) and 2 μl of mix is added to each well of the assay plate. The plate is briefly centrifuged then incubated for 2 h at rt. The HTRF intensities at the wavelength of donor (615 nm) and acceptor (665 nm) are measured using BMG Pherastar. The ratio between intensities at two wavelengths is calculated and plotted against the compound concentration and the data is fitted to a one-site competition model to yield IC50 of the compound.

The target in test [2] is T1, IL-17A(FLAG-Tagged): IL-17RA(His-Tagged). Put plainly: IL-17A(FLAG-Tagged): IL-17RA(His-Tagged) Binding Disruption Eu-HTRF Assay, Protocol 1. The settings on record: Protocol 1, FLAG tagged IL-17A 2.5 nM; simple average if tested more than once. In a few lines: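 IC50 came from a one-site competition fit of the acceptor/donor (665/620 nm) HTRF ratio. His-tagged IL-17RA, Eu-anti-FLAG and D2-anti-His were added after a 1 h rt compound preincubation with FLAG-tagged IL-17A dimer in PBS/0.01% Triton X-100, followed by 2 h at rt before reading.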
(In general: In TR-FRET formats the signal depends on donor and acceptor labels being close together.)

Test [3] deals with IL-17A-induced G-CSF production in human normal keratinocyte (NHK). Put plainly: NHK Assay: IL-17A-induced G-CSF production in human normal keratinocyte. Particulars: Homo sapiens, Keratinocyte, 24 h, IL-17A 5 ng/mL, simple average if tested more than once. It counts as cell-based. The gist of the method: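 Stimulus rhIL-17A 5 ng/mL final, premixed 1 h rt with compound; adult NHK, 5% FBS, 0.2% DMSO. Viability by CellTiter-Glo vs DMSO.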

Test [4] deals with patients with moderate-to-severe HS. Particulars: seven of nine patients with moderate-to-severe HS, open-label pilot-trial; cited from earlier work.

T1 sequence (Q16552 with tags, fused parts or gaps K93Q): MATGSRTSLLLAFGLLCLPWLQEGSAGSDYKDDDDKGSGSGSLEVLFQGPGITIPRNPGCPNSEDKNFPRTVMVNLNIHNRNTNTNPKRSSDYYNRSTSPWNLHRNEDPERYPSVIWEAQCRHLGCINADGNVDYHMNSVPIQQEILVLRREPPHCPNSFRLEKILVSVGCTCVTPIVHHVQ

With `COC[C@H](c1ccc2[nH]c(C(COC(C)(C)C(F)(F)F)NC(=O)c3ncnn3C(C)C)nc2c1)N1CC(F)(F)CNC1=O` (single isomer, unassigned) [Example 52, N—((R*)-1-(5-((S)-1-(5,5-Difluoro-2-oxotetrahydropyrimidin-1(2H)-yl)-2-methoxyethyl)-1H-benzo[d]imidazol-2-yl)-2-((1,1,1-trifluoro-2-methylpropan-2-yl)oxy)ethyl)-1-isopropyl-1H-1,2,4-triazole-5-carboxamide], the IC50 in test [1], in test [2] and in test [3] was less than 50 nM throughout.

For the compound `CC(C)(OC[C@H](NC(=O)c1nonc1C1CC1)c1nc2cc(CN3C[C@@H](C(F)(F)F)NC3=O)ccc2[nH]1)C(F)(F)F` (single isomer, unassigned) [Example 17], the half-maximal inhibitory concentration (IC50) in test [1], in test [2] and in test [3] was less than 50 nM each time.

In the case of `CC(C)n1ncc(F)c1C(=O)N[C@@H](COC(C)(C)C(F)(F)F)c1nc2cc(CN3CC(C(F)(F)F)NC3=O)ccc2[nH]1` (single isomer, unassigned) [Example 32, 4-Fluoro-1-isopropyl-N—((R)-1-(5-(((S*)-2-oxo-4-(trifluoromethyl)imidazolidin-1-yl)methyl)-1H-benzo[d]imidazol-2-yl)-2-((1,1,1-trifluoro-2-methylpropan-2-yl)oxy)ethyl)-1H-pyrazole-5-carboxamide], the IC50 (commonly the midpoint of a concentration-inhibition curve) in test [1] was less than 50 nM; in test [2], less than 50 nM; in test [3], 50 to 100 nM.

As for secukinumab, the “patients achieved HiSCR” value in test [4] is recorded as 78%.

Consider `C[C@H](c1ccc2[nH]c(C(COC(C)(C)C(F)(F)F)NC(=O)c3nonc3C3CC3)nc2c1)N1C[C@@H](C(F)(F)F)NC1=O` (single isomer, unassigned) [Example 7, 4-Cyclopropyl-N—((R*)-1-(5-((R)-1-((S)-2-oxo-4-(trifluoromethyl)imidazolidin-1-yl)ethyl)-1H-benzo[d]imidazol-2-yl)-2-((1,1,1-trifluoro-2-methylpropan-2-yl)oxy)ethyl)-1,2,5-oxadiazole-3-carboxamide], for which the half-maximal inhibitory concentration (IC50) in test [1], in test [2] and in test [3] was less than 50 nM each time.

As for `CC(C)n1nccc1C(=O)NC(c1nc2nc([C@@H](C3CC3)N3CC(F)(F)CNC3=O)ccc2[nH]1)[C@@H](C)O[C@H](C)C(F)(F)F` (single isomer, unassigned) [Example 75, N-((1R*,2R)-1-(5-((R)-Cyclopropyl(5,5-difluoro-2-oxotetrahydropyrimidin-1(2H)-yl)methyl)-1H-imidazo[4,5-b]pyridin-2-yl)-2-(((R)-1,1,1-trifluoropropan-2-yl)oxy)propyl)-1-isopropyl-1H-pyrazole-5-carboxamide], the IC50 in test [1] was greater than 100 nM; in test [2], greater than 100 nM; in test [3] it was less than 50 nM.

Consider `C[C@@H](OC1CC1)[C@H](NC(=O)c1nonc1C1CC1)c1nc2cc([C@@H](COC3CC3)N3CC(F)(F)CNC3=O)ccc2[nH]1` [Example 71, N-((1R,2R)-2-Cyclopropoxy-1-(5-((S)-2-cyclopropoxy-1-(5,5-difluoro-2-oxotetrahydropyrimidin-1(2H)-yl)ethyl)-1H-benzo[d]imidazol-2-yl)propyl)-4-cyclopropyl-1,2,5-oxadiazole-3-carboxamide], for which the IC50 in test [1] and in test [3] was less than 50 nM in each case.

Take `Cc1nonc1C(=O)N[C@H](c1nc2cc([C@@H](COC3CC3)N3CC(F)(F)CNC3=O)ccc2[nH]1)[C@@H](C)OC1CC1` [Example 73, N-((1R,2R)-2-Cyclopropoxy-1-(5-((S)-2-cyclopropoxy-1-(5,5-difluoro-2-oxotetrahydropyrimidin-1(2H)-yl)ethyl)-1H-benzo[d]imidazol-2-yl)propyl)-4-methyl-1,2,5-oxadiazole-3-carboxamide]: the IC50 in test [1] and in test [3] was less than 50 nM each time.

Turning to `COC[C@H](c1ccc2[nH]c(C(NC(=O)c3nonc3C)[C@@H](C)OC(C)(C)C(F)(F)F)nc2c1)N1C[C@@H](C(F)(F)F)NC1=O` (single isomer, unassigned) [Example 74, N-[(1R*,2R)-1-[5-[(1S)-2-Methoxy-1-[(4S)-2-oxo-4-(trifluoromethyl)imidazolidin-1-yl]ethyl]-1H-benzimidazol-2-yl]-2-(2,2,2-trifluoro-1,1-dimethyl-ethoxy)propyl]-4-methyl-1,2,5-oxadiazole-3-carboxamide], the IC50 in test [1] and in test [3] was less than 50 nM throughout.

For `[2H]C1([2H])[C@H](C(F)(F)F)NC(=O)N1[C@H](COC)c1ccc2[nH]c([C@H](COC(C)(C)C(F)(F)F)NC(=O)c3nonc3C)nc2c1` (relative stereo) [Example 54, N—((R*)-1-(5-((S)-2-methoxy-1-((R*)-2-oxo-4-(trifluoromethyl)imidazolidin-1-yl-5,5-d2)ethyl)-1H-benzo[d]imidazol-2-yl)-2-((1,1,1-trifluoro-2-methylpropan-2-yl)oxy)ethyl)-4-methyl-1,2,5-oxadiazole-3-carboxamide], the IC50 in test [1], in test [2] and in test [3] was less than 50 nM throughout.

`C[C@@H](OC1CC1)[C@H](NC(=O)c1nonc1C1CC1)c1nc2cc([C@@H](COC3CC3)N3C[C@@H](C(F)(F)F)NC3=O)ccc2[nH]1` [Example 69, N-((1R,2R)-2-Cyclopropoxy-1-(5-((S)-2-cyclopropoxy-1-((S)-2-oxo-4-(trifluoromethyl)imidazolidin-1-yl)ethyl)-1H-benzo[d]imidazol-2-yl)propyl)-4-cyclopropyl-1,2,5-oxadiazole-3-carboxamide]: the IC50 in test [1] and in test [3] was less than 50 nM throughout.

Consider `Cc1nonc1C(=O)N[C@@H](COC(C)(C)C(F)(F)F)c1nc2cc([C@@H](C3CC3)N3C[C@@H](C(C)C)NC3=O)ccc2[nH]1` [Example 83, N—((R)-1-(5-((R)-Cyclopropyl((R)-4-isopropyl-2-oxoimidazolidin-1-yl)methyl)-1H-benzo[d]imidazol-2-yl)-2-((1,1,1-trifluoro-2-methylpropan-2-yl)oxy)ethyl)-4-methyl-1,2,5-oxadiazole-3-carboxamide], for which the concentration for half-maximal inhibition (IC50) in test [1], in test [2] and in test [3] was less than 50 nM each time.

Source of the values: patent US20250122181A1, “BENZIMIDAZOLES AS MODULATORS OF IL-17” (Janssen Pharmaceutica NV, priority 2021, published 2025).
